Data as given in patent US7811820B2, “Smooth muscle cell differentiation with CRP, SRF and GATA factors” (Baylor College of Medicine, priority 2003, dated 2010).
“Also recorded” adds a separate entry of the source.

Assays:
Format in all cases: cell-based, monkey
[1] = test system: SMA promoter; experiment: SMA-luciferase reporter transactivation assay in CV1 cells; settings: CV1 cells cotransfected with CRP2, SRF and GATA6, drug added 12 h after cotransfection, lysates 6-24 h post-drug
[2] = test system: SM22α promoter; experiment: SM22α promoter luciferase reporter assay in CV1 cells
[3] = test system: CRP2 nuclear localization in CV1 cells; experiment: Indirect immunofluorescence of V5 epitope-tagged CRP2 localization in transfected CV1 cells; settings: for CRP2 accumulation in the nucleus: after one hour of treatment; for CRP2 accumulation / localization in the nucleus: summary statement, no concentration given; for Nuclear localization of epitope-tagged CRP2: cytochalasin D 5 μg/ml, latrunculin B not shown
Experimental: (§1) FIGS. 9A-9B show signaling mechanisms involved in CRP2 nuclear localization. In FIG. 9A, there is indirect immunofluorescent analysis of V5 epitope-tagged CRP2 (green) in CV1 cells. Untreated control CV1 cells show global localization of CRP2. […] Fold-activation was determined by comparison to the transfection with empty expression vector in lane 1.
In CV1 fibroblasts, overexpressed wild type CRP2 localizes both in the nucleus and in the cytoplasmic compartments, similar to the subcellular distribution pattern of endogenous CRP2 (Chang et al., 2003). When NLS- or NES-tag is added, the fusion CRP2-NLS or CRP2-NES protein becomes over 90% nuclear- or cytoplasmic-exclusive localized, respectively (FIG. 8A). These reagents allow functional analyses to differentiate nuclear versus cytoplasmic functions of CRP2. […] Nuclear distribution of CRP2 is coincident with reporter gene activation.
(§2) To elucidate the mechanism controlling CRP2 shuttling, the inventors treated transiently transfected monkey CV1 fibroblasts with drugs that either affect cytoskeletal integrity ([…], cytochalasin D, latrunculin B) or are inhibitors of nuclear export (leptomycin B) and looked for changes in the distribution of CRP2.

[4] = test system: actin cytoskeleton; experiment: Actin cytoskeleton integrity in CV1 cells (rhodamine phalloidin)
Experimental: as §1, §2

SMILES | SMA gene activation / SMA-Luc reporter activity after drug treatment [1] | SMA gene activation / SMA-Luc reporter activity after drug treatment ([1]; listed as Y-26732) | SM22α promoter activity after drug treatment [2] | cells with CRP2 nuclear localization ([3]; 10 μM in growth medium of transfected CV1 fibroblasts) | CRP2 accumulation in the nucleus [3] | CRP2 accumulation / localization in the nucleus [3] | dissolution of the actin cytoskeleton [4] | Nuclear localization of epitope-tagged CRP2 [3] | transfected CV1 cells displaying CRP2 accumulation in the nucleus ([3]; 2 hr of 10 μg/ml treatment)
C[C@@H](N)[C@H]1CC[C@H](C(=O)Nc2ccncc2)CC1 [Y-27632] | further upregulates; also recorded: further up-regulated | increases | further up-regulated | 68% | accumulate in the nucleus | facilitated CRP2 nuclear localization |  |  | 
C=C1[C@@H](C)[C@H]2[C@H](Cc3ccccc3)NC(=O)[C@]23[C@H](OC(C)=O)/C=C/[C@@](C)(O)C(=O)[C@@H](C)C/C=C/[C@H]3[C@@H]1O [cytochalasin D] |  |  |  |  | accumulate in the nucleus |  | completely dissolved the actin cytoskeleton within one hour | observed | 
C/C1=C/C(=O)O[C@@H]2C[C@@H](CC[C@H](C)/C=C\CC1)O[C@@](O)([C@@H]1CSC(=O)N1)C2 [latrunculin B] |  |  |  |  |  |  | completely dissolved the actin cytoskeleton within one hour | observed | 
CCC(=C/[C@H](C)C/C=C/C(C)=C/[C@@H](C)C(=O)[C@@H](C)[C@H](O)[C@@H](C)C/C(C)=C/C(=O)O)/C=C/[C@@H]1OC(=O)C=C[C@@H]1C [leptomycin B] |  |  |  |  | accumulate in the nucleus | induced CRP2 accumulation in the nucleus |  |  | 82%
